Laboratory results from US20080188447A1, “Glucocorticoid-lowering composition” (priority 2007, published 2008).

Experiment: Daily food intake with subcutaneous steroid supplementation (Example 3)
Format: in vivo, rat
Conditions: group C (oral corn oil vehicle, no extract), steroid 5 mg/kg/day sc on days 4 and 5
Protocol: Male Wistar rats weighing about 250 g (2 groups designated as group C, control; and E, experimental treatment; 24 individuals per group) were kept as described in the Example 1 from day 1 to day 6 of the experiment. On days 1 through 4, a botanical extract from a plant Asclepias incarnata enriched with pregnane derivatives according to Formula (I) was administered orally in doses of 100 mg/kg body weight/day in 1 ml of corn oil (Sigma #C8267). As a negative control (vehicle), animals were administered orally with 1 ml of corn oil alone. On day 4 of the experiment both groups of animals C and E were further subdivided into 6 groups containing 4 animals each, designated C, control; PREG, pregnenolone; PROG, progesterone; DEOX, deoxycorticosterone; CORT, corticosterone; and DHEA, dehydroepiandrosterone. On day 4 and day 5, animals from these subgroups received a subcutaneous injection of 5 mg/kg body weight/day of the respective steroid compound in 5% DMSO and corn oil; total volume of 0.1 ml. The control animals in group C subgroup C and group E subgroup C received a subcutaneous injection of vehicle (5% DMSO in corn oil) only. On days 4 and 6 food intake was measured. […]

SMILES: C[C@]12C[C@H](O)[C@H]3[C@@H](CCC4=CC(=O)CC[C@@]43C)[C@@H]1CC[C@@H]2C(=O)CO [CORT, corticosterone]
- Daily food intake, Day 6: no direct effect on food intake alone
